For 13 compounds, Solubility in water, IC50 and solubility results are on record in patent US6284914A, “Highly water-soluble metalloproteinase inhibitors” (Fuji Yakuhin Kogyo Kabushiki Kaisha, priority 1995, dated 2001).

Data set [1] is described as follows: Measurement of Solubility in Water. It counts as physicochemical. To be noted: distilled water, 20±5° C., 30 min., checked by eye. How it is done: A compound of Examples or a comparative compound was added to distilled water and shaken vigorously at 20±5° C. for 30 seconds at 5 min. interval. After 30 min., it was checked by watching with eye whether the compound was dissolved or not.

The next data set has as its target T1, collagenase (MMP-1) (Homo sapiens, UniProt P03956).
T1 construct: endogenous in cells; host or cells: human fibroblast
T1 sequence (P03956 100-469): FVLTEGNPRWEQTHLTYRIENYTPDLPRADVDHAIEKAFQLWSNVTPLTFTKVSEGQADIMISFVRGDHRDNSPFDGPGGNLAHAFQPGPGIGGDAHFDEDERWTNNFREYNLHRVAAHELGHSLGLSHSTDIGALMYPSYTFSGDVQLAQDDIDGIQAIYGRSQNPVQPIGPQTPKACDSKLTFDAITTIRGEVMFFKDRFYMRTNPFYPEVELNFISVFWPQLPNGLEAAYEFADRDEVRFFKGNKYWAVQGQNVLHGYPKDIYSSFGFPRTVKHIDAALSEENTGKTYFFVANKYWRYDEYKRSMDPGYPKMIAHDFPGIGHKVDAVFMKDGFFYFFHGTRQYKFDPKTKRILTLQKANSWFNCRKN
The data set is described as follows: Assay for Collagenase Inhibitory Activity (MMP-1). It counts as biochemical. The method, then:
(§1) Inhibitory activities of the compounds represented by the general formula (I) according to the invention for collagenase (metalloproteinase concerned with a tissue destruction) derived from human fibroblast were tested by the method of Y. Murawaki et al., [Journal of Hepatology, 18, p. 328-334 (1993)], and their inhibitory activities for stromelysin derived from human fibroblast were measured by the method of S. S. Twining et al., [Anal. Biochem., 143, p. 30 (1984)].
Inhibitory activities for collagenase (MMP-1) of the compounds of Examples and comparative compounds were measured by the method of Y. Murawaki et al., [Journal of Hepatology, 18, p. 328-334 (1993)]. The latent procollagenase was activated by incubating with mercury aminophenylacetate (2 mM) at 35° C. for 2 hours. The assay was done by using bovine type I collagen labeled with fluorescein as a substrate. The activated collagenase was added to the substrate solution (0.5 mg/ml) in Tris HCl buffer (50 mM, pH 7.5) containing sodium chloride (0.4 M) and calcium chloride (10 mM). The obtained solution was incubated at 35° C. for 2 hours. The enzyme digestion was stopped by the addition of o-phenanthroline (80 mM). The mixture was added with pig spleen elastase solution (25 μg/ml) in the above Tris HCl buffer, and incubated 37° C. for 10 min. The obtained solution was added with 70% ethanol and Tris HCl buffer (170 mM, pH 9.5) containing sodium chloride (0.61 M), whereby the indigested substrate was sedimented by centrifuging at 3000 g for 20 min. The supernatant was taken, and its intensity of fluorescence was determined by the excitation wavelength (495 nm) and the measured wavelength (520 nm), and the inhibitory activity was obtained. IC50 is a concentration of a compound assayed in the digesting enzyme, whereby the splitting of the substrate was decreased to 50% compared with that attained by the enzyme alone.

The target in a further data set is T2, stromelysin (MMP-3) (Homo sapiens, UniProt P08254).
T2 construct: endogenous in cells; host or cells: human fibroblast
T2 sequence (P08254 100-477): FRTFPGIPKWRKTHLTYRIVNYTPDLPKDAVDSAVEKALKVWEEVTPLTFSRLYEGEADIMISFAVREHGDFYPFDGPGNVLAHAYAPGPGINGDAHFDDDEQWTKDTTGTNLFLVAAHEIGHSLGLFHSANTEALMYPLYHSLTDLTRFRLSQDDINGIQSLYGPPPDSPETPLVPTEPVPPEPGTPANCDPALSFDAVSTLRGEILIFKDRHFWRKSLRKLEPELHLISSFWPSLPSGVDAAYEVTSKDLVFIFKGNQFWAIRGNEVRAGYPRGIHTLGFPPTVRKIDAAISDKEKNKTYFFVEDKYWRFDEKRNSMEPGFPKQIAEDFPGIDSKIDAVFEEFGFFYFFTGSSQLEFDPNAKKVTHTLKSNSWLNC
The data set is described as follows: Assay for Stromelysin Inhibitory Activity (MMP-3). The format is biochemical. Particulars: fluorescein-labeled casein substrate, 37° C., 2 hours, pH 7.8; read-out: Inhibitory activities for matrix metalloproeinases (MMPs), MMP-3, IC50 value. The method, then:
as §1
Inhibitory activities for stromelysin (MMP-3) of the compounds of Examples and comparative compounds were measured by the method of S. S. Twining et al., [Anal. Biochem., 143, p. 30 (1984)]. The latent prostromelysin was incubated with human plasmin (20 μg/ml) for the activation at 37° C. for 2 hours, and then the incubate was added with diisopropyl fluorophosphate solution (2.8 mg/ml) to stop the reaction. The assay was done by using casein labeled with fluorescein as the substrate. The activated stromelysin was added to a substrate solution (1 mg/ml) in Tris HCl buffer (50 mM, pH 7.8) containing calcium chloride (10 mM). The obtained solution was incubated at37° C. for 2 hours. The enzyme digestion forthesubstrate was stopped by adding 5% trichloroacetic acid. The indigested substrate was sedimented by centrifuging at 3000 g for 20 min. The supernatant was taken and added with Tris HCl buffer (0.5 M, pH 8.5), whereby its intensity of fluorescence was determined by the excitation wavelength (495 nm) and the measured wavelength (520 nm), and the inhibitory activity was obtained. IC50 is a concentration of a compound assayed in the digesting enzyme, whereby the splitting of the substrate was decreased to 50% compared with that attained by the enzyme alone.

The mark [2] stands for this setting: fluorescein-labeled bovine type I collagen substrate, 35° C., 2 hours, pH 7.5, read-out: Inhibitory activities for matrix metalloproeinases (MMPs), MMP-1, IC50 value.

The structures appear in SMILES notation. pIC50: −log10 of the molar value. Counter-ions that a name gives are not always drawn. Like-named read-outs stand apart in the source and are kept apart here.

Compound `CCCOC[C@H](C(=O)N[C@@H](Cc1ccc(S(=O)(=O)[O-])cc1)C(=O)NC)C(CSC(C)C)C(=O)NO.[Na+]` (mixture of isomers) [Example 6, N-[4-(N-Hydroxyamino)-2(R)-n-propyloxymethylene-3(RS)-isopropylthiomethylenesuccinyl]-L-4'-sulfophenylalanine-N-methylamide, Monosodium Salt] had a Solubility in water in data set [1] greater than 120 mg/mL. Besides, the pIC50 (in general, the negative decadic logarithm of the IC50, by convention in mol/L) is 7.70 on collagenase (MMP-1) (setting [2]) and 6.55 on stromelysin (MMP-3).
With `CNC(=O)[C@H](Cc1ccc(OS(=O)(=O)O)cc1)NC(=O)[C@H](CC(C)C)C(CCCc1ccccc1)C(=O)NO` (single isomer, unassigned) [Example 3 (Isomer A), N-[4-(N-Hydroxyamino)-2(R)-isobutyl-3(R or S)-(3-phenyltrimethylene)succinyl]-O-sulfo-L-tyrosine-N-methylamide, Monosodium Salt], the solubility (commonly the concentration that dissolves in the medium under given conditions) at 0.5 h in data set [1] (water) was greater than 100 mg/mL.
On to `CNC(=O)[C@H](Cc1ccc(OS(=O)(=O)O)cc1)NC(=O)[C@H](CC(C)C)C(CCCc1ccccc1)C(=O)NO` (single isomer, unassigned) [Example 3 (Isomer B), N-[4-(N-Hydroxyamino)-2(R)-isobutyl-3(R or S)-(3-phenyltrimethylene)succinyl]-O-sulfo-L-tyrosine-N-methylamide, Monosodium Salt], for which the Solubility in water in data set [1] (Monosodium Salt) was determined as 150 mg/mL. The pIC50 was 9.40 on collagenase (MMP-1) (setting [2]) and 8.27 on stromelysin (MMP-3).
Consider `CNC(=O)[C@H](Cc1ccc(S(=O)(=O)O)cc1)NC(=O)[C@H](CC(C)C)C(CSc1cccs1)C(=O)NO` (single isomer, unassigned) [Example 5 (Isomer A), N-[4-(N-Hydroxyamino)-2(R)-isobutyl-3(R or S)-(thienylthiomethylene)succinyl]-L-4'-sulfophenylalanine-N-methylamide, Monosodium Salt], for which the solubility at 0.5 h in data set [1] (water) is greater than 320 mg/mL. Further, the negative logarithm of the IC50 (pIC50) at collagenase (MMP-1) (setting [2]) and at stromelysin (MMP-3) was 8.10 each time.
For the compound `CNC(=O)[C@H](Cc1ccc(S(=O)(=O)O)cc1)NC(=O)[C@H](CC(C)C)C(CSc1cccs1)C(=O)NO` (single isomer, unassigned) [Example 5 (Isomer B), N-[4-(N-Hydroxyamino)-2(R)-isobutyl-3(R or S)-(thienylthiomethylene)succinyl]-L-4'-sulfophenylalanine-N-methylamide, Monosodium Salt], the Solubility in water in data set [1] (Monosodium Salt) was greater than 300 mg/mL.
In turn, `CNC(=O)[C@H](Cc1ccc(OP(=O)(O)O)cc1)NC(=O)C(CC(=O)NO)CC(C)C` (single isomer, unassigned) [Example 9, N-[4-(N-Hydroxyamino)-2(R or S)-isobutylsuccinyl]-O-phospho-L-tyrosine-N-methylamide, Disodium Salt] came in with a solubility at 0.5 h in data set [1] greater than 200 mg/mL. For the same compound, the pIC50 against collagenase (MMP-1) was 7.77; on stromelysin (MMP-3), 6.40.
Regarding `CNC(=O)[C@H](Cc1cccc(OS(=O)(=O)O)c1)NC(=O)[C@H](CC(C)C)C(CCCc1ccccc1)C(=O)NO` (single isomer, unassigned) [Example 15, N-[4-(N-Hydroxyamino)-2(R)-isobutyl-3(R or S)-(3-phenyltrimethylene)succinyl]-O-sulfo-L-meta-tyrosine-N-methylamide, Monosodium Salt], in data set [1] (water), the solubility at 0.5 h was found to be 120 mg/mL. In addition, the pIC50 on collagenase (MMP-1) (setting [2]) is 8.10; at stromelysin (MMP-3), 8.24.
In data set [1] (water), `CNC(=O)[C@H](Cc1ccc(OC)cc1)NC(=O)[C@@H](CC(=O)NO)CC(C)C` [Comparative Compound 1, N-[4-(N-Hydroxyamino)-2(R)-isobutylsuccinyl]-O-methyl-L-tyrosine-N-methylamide, reference compound] showed a solubility at 0.5 h of less than 1 mg/mL. The negative-log IC50 (pIC50) at stromelysin (MMP-3) was 6.96.
For the compound `CNC(=O)[C@H](Cc1ccc(O)cc1)NC(=O)[C@H](CC(C)C)[C@H](CCCc1ccccc1)C(=O)NO` [Comparative Compound 2, N-[4-(N-Hydroxyamino)-2(R)-isobutyl-3(S)-phenyltrimethylenesuccinyl]-L-tyrosine-N-methylamide, reference compound], in data set [1] (water), the solubility at 0.5 h is less than 1 mg/mL. For the same compound, the pIC50 on collagenase (MMP-1) (setting [2]) was 9.82; on stromelysin (MMP-3), 8.10.
The compound `CNC(=O)[C@H](Cc1ccccc1)NC(=O)[C@H](CC(C)C)[C@H](CSc1cccs1)C(=O)NO` [Comparative Compound 3, N-[4-(N-Hydroxyamino)-2(R)-isobutyl-3(S)-thienyltiomethylenesuccinyl]-L-phenylalanine-N-methylamide, reference compound] gave a solubility at 0.5 h in data set [1] (water) of less than 1 mg/mL.
In data set [1] (water), `CCCOC[C@H](C(=O)N[C@@H](Cc1ccc(OC)cc1)C(=O)NC)[C@H](CSC(C)C)C(=O)NO` [Comparative Compound 4, N-[4-(N-Hydroxyamino)-2(R)-n-propyloxymethylene-3(S)-isopropylthiomethylenesuccinyl]-O-methyl-L-tyrosine-N-methylamide, reference compound] yielded a solubility at 0.5 h of less than 1 mg/mL. For the same compound, the pIC50 on collagenase (MMP-1) (setting [2]) was 7.96; on stromelysin (MMP-3), 7.00.
On the same counts, the results for `CNC(=O)[C@H](Cc1ccc(S(=O)(=O)O)cc1)NC(=O)C(CC(=O)NO)CC(C)C` (stereo partly drawn) [Example 2, N-[4-(N-Hydroxyamino)-2(RS)-isobutylsuccinyl]-L-4'-sulfophenylalanine-N-methylamide, Monosodium Salt] are greater than 250 mg/mL, 8.38 and 6.70.
On the same counts, the results for `COc1ccc(NC(=O)[C@H](Cc2ccc(OS(=O)(=O)O)cc2)NC(=O)[C@H](CC(C)C)C(CCCc2ccccc2)C(=O)NO)cc1` (stereo partly drawn) [Example 7, N-[4-(N-Hydroxyamino)-2(R)-isobutyl-3(RS)-(3-phenyltrimethylene)succinyl]-O-sulfo-L-tyrosine-N-p-methoxyphenylamide, Monosodium Salt] are 100 mg/mL, 8.10 and 8.00.
